# Reference: EP1698638A1, “Lipopeptides having pharmaceutical activity” (Technische Universität Berlin, priority 2005, dated 2006)
# How the values were obtained:
# Assay in all cases: microdilution assay (NCCLS), inhibitory concentration (IC)
# Assay type in all cases: cell-based
# Conditions in all cases: RPMI-1640 medium
# [1] = system: Aspergillus fumigatus RKI 914/02
# Protocol: (§1) More specifically, a determination of inhibitory concentration (IC) of hassallidin A and hassallidin B for various fungi, Candida species and Candida strains were performed with different media (RPMI-1640 or SAB or AM3) in a microdilution assay by following the guidelines in NCCLS documents M^38-P^25 and M27-A2^26 carried out as follows Each substance was dissolved with 100% dimethyl sulfoxide (Serva, Heidelberg, Germany) to give a stock solution of 3.2 mg/ml followed by nine log2 dilution steps with the solvent. This served as a 100-fold concentrated dilution series ranging from 1.6 mg/ml to 0.003 mg/ml of the test substance. The final concentration of the test substance was 16 µg/ml to 0.031 µg/ml.
# (§2) Therefore the 100-fold concentrated dilution series (with 100% DMSO) was diluted to the final concentration by two dilution steps: • (1) Each concentration of the 100-fold concentrated substance was diluted with test medium for 1:50 (for ex.: adding of 13 µl of the test substance to 637 µl test medium). • (2) 100 µl of each 1:50 diluted concentration was filled in a row of wells of a microtitre plate. One well was without the substance but with the 1:50 diluted solvent serving as growth control.
# (§3) A further 1:2 dilution of the antifungal was made by the inoculation of each well with 100 µl of the test organism, which was suspended in the test medium. The remaining well of the row was used for sterility control of the medium. The inoculum was strictly prepared according the NCCLS^25 guidelines, resulting in […] for Candida-species and Cryptococcus neoformans. For hyphomycetes CFU's were tenfold higher (see NCCLS). ^26 The growth of the hyphomycetes respectively the inhibition was measured by visual reading with the help of a reading mirror; scoring was done according to NCCLS :^26 score 0 corresponds to a optical clear well or an IC95 or higher, score 1 corresponds to an inhibition of 80 percent (IC80) and the score 2 of the NCCLS definition corresponds to the IC50 values in the tables. The growth of the yeasts was measured spectrophotometrically by a microplate reader (MR 5000, Dynatech laboratories) at 630 nm displaying the optical density (OD). The percent inhibition IC50, IC80 or IC95 (corresponding the scores of 2, 1 and 0) was calculated by the following formula: (100−[(ODof the well−ODof the medium)] × 100)/((ODof the growth control−ODof the medium).) [formula] Table 3. Test series for determining IC values of hassallidin A and B in different media using Candida albicans and Candida krusei. The IC values were measured after 24 h and 48 h at 30 °C.
# [2] = system: Acremonium strictum RKI 226/03
# Protocol: as §1, §2, §3
# Candida spp. I = system: Candida spp. I
# Protocol: as §1, §2, §3
# [3] = system: Candida albicans ATCC 90028
# Protocol: as §1, §2, §3
# Candida spp. II = system: Candida spp. II
# Protocol: as §1, §2, §3
# [4] = system: Fusarium solani RKI 233/04
# Protocol: as §1, §2, §3
# [5] = system: Fusarium solani RKI 144/03
# Protocol: as §1, §2, §3
# [6] = system: Aspergillus fumigatus RKI 584/00
# Protocol: as §1, §2, §3
substance,measurement,setting,value
hassallidin A,IC50,[1]; 35°C/24h,2 µg/mL
same,IC80,[1]; 35°C/24h,2 µg/mL
same,IC95,[1]; 35°C/24h,2 µg/mL
same,IC50,[1]; 35°C/48h,2 µg/mL
same,IC80,[1]; 35°C/48h,2 µg/mL
same,IC95,[1]; 35°C/48h,4 µg/mL
same,IC50,[2]; 30°C/24h,4 to 8 µg/mL
same,IC80,[2]; 30°C/24h,16 µg/mL
same,IC95,[2]; 30°C/24h,16 µg/mL
same,IC50,[2]; 30°C/48h,>16 µg/mL
same,IC80,[2]; 30°C/48h,> 16 µg/mL
same,IC95,[2]; 30°C/48h,> 16 µg/mL
same,IC50,Candida spp. I; 35°C/24h,8 µg/mL
same,IC80,Candida spp. I; 35°C/24h,8 µg/mL
same,IC95,Candida spp. I; 35°C/24h,8 µg/mL
same,IC50,Candida spp. I; 35°C/48h,8 µg/mL
same,IC80,Candida spp. I; 35°C/48h,8 µg/mL
same,IC95,Candida spp. I; 35°C/48h,8 µg/mL
same,IC50,[3]; 35°C/24h,8 µg/mL
same,IC80,[3]; 35°C/24h,8 µg/mL
same,IC95,[3]; 35°C/24h,8 µg/mL
same,IC50,[3]; 35°C/48h,8 µg/mL
same,IC80,[3]; 35°C/48h,8 µg/mL
same,IC95,[3]; 35°C/48h,8 µg/mL
same,IC50,Candida spp. II; 35°C/24h,8 µg/mL
same,IC80,Candida spp. II; 35°C/24h,8 µg/mL
same,IC95,Candida spp. II; 35°C/24h,8 µg/mL
same,IC50,Candida spp. II; 35°C/48h,8 µg/mL
same,IC80,Candida spp. II; 35°C/48h,8 µg/mL
same,IC95,Candida spp. II; 35°C/48h,8 µg/mL
same,IC50,[4]; 30°C/24h,16 µg/mL
same,IC80,[4]; 30°C/24h,16 µg/mL
same,IC95,[4]; 30°C/24h,>16 µg/mL
same,IC50,[4]; 30°C/48h,>16 µg/mL
same,IC80,[4]; 30°C/48h,>16 µg/mL
same,IC95,[4]; 30°C/48h,>16 µg/mL
same,IC50,[5]; 30°C/24h,16 µg/mL
same,IC80,[5]; 30°C/24h,16 µg/mL
same,IC95,[5]; 30°C/24h,>16 µg/mL
same,IC50,[5]; 30°C/48h,>16 µg/mL
same,IC80,[5]; 30°C/48h,>16 µg/mL
same,IC95,[5]; 30°C/48h,>16 µg/mL
same,IC50,[6]; 35°C/24h,2 µg/mL
same,IC80,[6]; 35°C/24h,2 µg/mL
same,IC95,[6]; 35°C/24h,2 µg/mL
same,IC80,[6]; 35°C/48h,4 µg/mL
same,IC95,[6]; 35°C/48h,4 µg/mL
